Experimental data taken from patent publication US20080287374A1, “BREAST CANCER-RESISTANT PROTEIN INHIBITOR” (KABUSHIKI KAISHA YAKULT HONSHA, priority 2003, published 2008).
Converted amounts (≈) assume the structure as drawn.

How the values were obtained:
MES-SA/Dx5 cell line = assay: Effect of flavonoid on multidrug (paclitaxel) resistance of MES-SA/Dx5 cell line; assay type: cell-based, human; conditions: Homo sapiens; concentration of flavonoid for 50% reduction of relative resistance value to paclitaxel; MES-SA/Dx5 (P-glycoprotein overexpression), 48 hours; read-out: Resistance overcoming effect EC50
Method: Human uterine cancer MES-SA cell line or MES-SA/Dx5 cell line which had acquired multidrug resistance through overexpression of P-glycoprotein (Cancer Res. 45, 4091-4096 (1985)) was suspended in 10% FBS/DMEM, and the resultant suspension was inoculated into a 96-well microplate, followed by culturing at 5% CO2 and 37° C. overnight (3×10^3 cells/50 μL/well). Thereafter, a solution of a flavonoid and paclitaxel in 10% FBS/DMEM (25 μL) was added to each of the wells, followed by culturing at 5% CO2 and 37° C. for 48 hours. After completion of culturing, the number of viable cells was counted by use of TetraColor ONE according to the attached instruction manual.

A549/SN-38-4 cell line [1] = assay: Effect of flavonoid in overcoming anticancer drug (SN-38) resistance of A549/SN-38 cell line; assay type: cell-based, human; conditions: Homo sapiens; concentration of flavonoid for 50% reduction of relative resistance value to SN-38; A549/SN-38-4, 48 hours
Method: The A549 cell line or the A549/SN-38-4 cell line was suspended in 10% FBS/Ham's F-12, and the resultant suspension was inoculated into a 96-well microplate, followed by culturing at 5% CO2 and 37° C. overnight (2×10^3 cells/50 μL/well). Thereafter, a solution of a flavonoid and SN-38 in 10% FBS/Ham's F-12 (25 μL) was added to each of the wells, followed by culturing at 5% CO2 and 37° C. for 48 hours. After completion of culturing, the number of viable cells was counted by use of TetraColor ONE according to the attached instruction manual.

P388/BCRP cell line = assay: Effect of flavonoid in overcoming anticancer drug resistance in vivo (survival of tumor-implanted mice); parameters: species or system mouse; conditions: compound 100 mg/kg/day + CPT-11 20 mg/kg/day, intraperitoneally once a day, days 1 to 10; CDF1 mice
Method: Groups of six-week-old female CDF1 mice, each group consisting of 5 mice, were employed. The P388 cell line or the P388/BCRP cell line (1×10^6 cells) was implanted into the peritoneal cavity of each of the mice. […] Merely the solvent was administered to mice in the control group. In order to evaluate the antitumor effect of the flavonoid, survival rate T/C (%) was calculated from the survival days of the tumor-implanted mice by use of the following formula.
Survival rate T/C (%)=(the mean survival days of mice in the treated flavonoid group)÷(the mean survival days of mice in the control group)×100

A549/SN-38-4 cell line [2] = assay: Anticancer drug sensitivity test, A549/SN-38-4; assay type: cell-based, human; conditions: stated for the A549/SN-38 cell lines; FIG. 1 shows A549/SN-38-4
Method: Human non-small cell lung cancer A549 cell line was subcultured at 5% CO2 and 37° C. by use of a Ham's F-12 medium containing 10% FBS, 100 U/mL of penicillin, and 100 μg/mL of streptomycin (10% FBS/Ham's F-12). SN-38-resistant A549 cell lines were selected by subculturing the A549 cell line in a medium for two months while the concentration of SN-38 contained in the medium was increased in a stepwise manner (4 to 10 ng/mL). Subsequently, the resultant SN-38-resistant A549 cell lines were subjected to cloning by means of limiting dilution, to thereby establish six cloned SN-38-resistant A549 cell lines (A549/SN-38-1 to 6).
Thereafter, a solution of an anticancer drug in 10% FBS/Ham's F-12 (50 μL) was added to each of the wells, followed by culturing at 5% CO2 and 37° C. for 48 hours. After completion of culturing, the number of viable cells was counted by use of a viable cell counting reagent [TetraColor ONE (trade name), product of Seikagaku Corporation] according to the attached instruction manual. […] “Relative resistance value” is obtained by dividing the IC50 for an A549/SN-38 cell line by the IC50 for the A549 cell line. The greater the relative resistance value, the higher the level of acquired resistance.

A549/SN-38-4 cell line [3] = assay: Amount of anticancer drug accumulated in A549/SN-38 cell line; assay type: cell-based, human; conditions: both the A549 cell line and the A549/SN-38-4 cell line; SN-38 300 ng/mL, 60 minutes
Method: The A549 cell line or the A549/SN-38-4 cell line (4×10^6 cells/mL) was suspended in 10% FBS/RPMI1640 (1 mL), and an SN-38 DMSO solution (1 μL, final concentration: 300 ng/mL) was added to the resultant suspension, followed by incubation at 37° C. for 60 minutes. Thereafter, centrifugation was performed (2° C., 1,400×g, 1 min), and the resultant supernatant was removed. Ice-cooled PBS was added to the thus-precipitated cells, and the cells were resuspended therein, followed by centrifugation (2° C., 1,400×g, 1 min) for washing of the cells. This washing procedure was performed again, followed by addition of PBS (375 μL) and sonication of the cells. To the resultant destructed cells, methanol (375 μL) and 10% zinc sulfate solution (15 μL) were added, and the resultant mixture was stirred, followed by centrifugation (2° C., 12,500×g, 5 min) and collection of the supernatant. The thus-collected supernatant was dispensed in a white 96-well microplate for fluorescence intensity measurement (200 μL/well), and then the amounts of SN-38 and an SN-38-glucuronide contained in the supernatant were measured by use of a microplate fluorometer [SPECTRA max GEMINI XS (trade name), product of Molecular Devices] […]

SMILES	EC50 (MES-SA/Dx5 cell line) [µg/mL]	EC50 (A549/SN-38-4 cell line [1]) [µg/mL]	Survival days Mean ± S.D. (P388/BCRP cell line) [days]	Survival rate T/C (P388/BCRP cell line) [%]	Resistance of the A549/SN-38 cell lines to the drug (in words) (A549/SN-38-4 cell line [2])	SN-38-glucuronide detected in cells (A549/SN-38-4 cell line [3])
COc1ccc(/C=C/C(=O)c2ccc(O)cc2O)cc1OC [Compound 3-5, 2′,4′-Dihydroxy-3,4-dimethoxychalcone]	> 1	0.04 (≈ 0.133 µM)	18.4 ± 0.5	153	–	–
O=C1c2c(O)ccc(O)c2C(=O)c2c(NCCNCCO)ccc(NCCNCCO)c21 [mitoxantrone]	–	–	–	–	particularly strong resistance	–
COc1cc2oc(-c3ccccc3)cc(=O)c2cc1OC [Compound 1-15, 6,7-Dimethoxyflavone]	> 1	0.16 (≈ 0.567 µM)	18.2 ± 3.9	152	–	–
CCc1c2c(nc3ccc(O[C@@H]4O[C@H](C(=O)O)[C@@H](O)[C@H](O)[C@H]4O)cc13)-c1cc3c(c(=O)n1C2)COC(=O)[C@]3(O)CC [SN-38-glucuronide]	–	–	–	–	–	virtually no SN-38-glucuronide was detected
CCc1c2c(nc3ccc(O)cc13)-c1cc3c(c(=O)n1C2)COC(=O)[C@]3(O)CC [SN-38]	–	–	–	–	particularly strong resistance	–
COc1cc(O)c(C(=O)/C=C/c2ccc(O)cc2)c(OC)c1 [Compound 3-1, 2′,4-Dihydroxy-4′,6′-dimethoxychalcone]	> 1	0.04 (≈ 0.133 µM)	–	–	–	–
COc1cc(/C=C/C(=O)c2cc(Cl)cc(Br)c2O)cc(OC)c1OC [Compound 3-10, 3′-Bromo-5′-Chloro-2′-hydroxy-3,4,5-trimethoxychalcone]	> 1	0.97 (≈ 2.27 µM)	–	–	–	–
COc1cc(-c2oc3cc(O)cc(O)c3c(=O)c2O)ccc1O [Compound 1-11, 3,4′,5,7-Tetrahydroxy-3′-methoxyflavone]	> 1	0.16 (≈ 0.506 µM)	–	–	–	–
COc1cccc(-c2cc(=O)c3cc(OC)ccc3o2)c1 [Compound 1-21, 3′,6-Dimethoxyflavone]	> 1	0.52 (≈ 1.84 µM)	–	–	–	–
COc1ccc(O)c(C(=O)/C=C/c2cccc(OC)c2OC)c1 [Compound 3-9, 2′-Hydroxy-2,3,5′-trimethoxychalcone]	> 1	0.94 (≈ 2.99 µM)	–	–	–	–
COc1cc2oc(-c3ccc(O)cc3)cc(=O)c2c(O)c1OC [Compound 1-19, 5,4′-Dihydroxy-6,7-dimethoxyflavone]	> 1	0.015 (≈ 0.0477 µM)	–	–	–	–
COc1ccc2c(=O)cc(-c3ccc(OC)c(OC)c3)oc2c1 [Compound 1-14, 3′,4′,7-Trimethoxyflavone]	> 1	0.0078 (≈ 0.025 µM)	18.4 ± 4.5	153	–	–
